21 compounds from PubChem BioAssay (NCI) can be followed below.

Among the test systems are K-562 leukemia; MDA-MB-231 breast; SNB-75 CNS; HCC-2998 colon; HL-60(TB) leukemia; UACC-62 melanoma; OVCAR-4 ovarian; LOX IMVI melanoma; SK-MEL-28 melanoma; OVCAR-5 ovarian.
Common to all, as to assay: NCI-60 cell line screen, 48 h

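Method: 48-hour compound exposure of cells in 96-well plates, five concentrations, linear interpolation of endpoints. The concentration for 50% growth inhibition is given as GI50. TGI marks complete inhibition of growth.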

For the compound `COc1cc2c(/C=C3/C(=O)Nc4ccccc43)c(Cl)[nH]c2cc1C`, the TGI with K-562 leukemia turned out to be 24 µM; in the experiment on MDA-MB-231 breast, 4.89 µM; in the experiment with SNB-75 CNS it was 17.9 µM; in the experiment with HCC-2998 colon, 0.982 µM; in the experiment on HL-60(TB) leukemia it was 3.34 µM; in the experiment with UACC-62 melanoma, 15.5 µM. In addition, the TGI in the experiment on OVCAR-4 ovarian amounted to 21.1 µM; in the experiment on LOX IMVI melanoma, 15.4 µM; with SK-MEL-28 melanoma, 29.6 µM; in the experiment with OVCAR-5 ovarian, 23.7 µM.

`O=C(CSc1n[nH]c(=O)[nH]c1=O)NNC(=O)c1cccc2nc3ccccc3nc12`: the TGI in the experiment with K-562 leukemia, with MDA-MB-231 breast, with HCC-2998 colon, in the experiment with HL-60(TB) leukemia, in the experiment with UACC-62 melanoma and with OVCAR-4 ovarian was greater than 100 µM each time. Besides, the TGI in the experiment with LOX IMVI melanoma, with SK-MEL-28 melanoma and with OVCAR-5 ovarian was greater than 100 µM throughout.

With `Nc1ccc(S(=O)(=O)Nc2nc3ccccc3nc2N2CCCCC2)cc1`, the TGI in the experiment with K-562 leukemia, in the experiment with MDA-MB-231 breast, in the experiment with SNB-75 CNS, in the experiment on HCC-2998 colon, with HL-60(TB) leukemia and in the experiment with UACC-62 melanoma was greater than 100 µM throughout. Besides, the TGI in the experiment with OVCAR-4 ovarian is 87.7 µM; with LOX IMVI melanoma, greater than 100 µM; in the experiment on SK-MEL-28 melanoma it was greater than 100 µM; in the experiment with OVCAR-5 ovarian it was greater than 100 µM.

For `NC(=O)c1cc2ccccc2o/c1=N/O`, the TGI with K-562 leukemia, with MDA-MB-231 breast, with SNB-75 CNS, in the experiment with HCC-2998 colon, in the experiment with HL-60(TB) leukemia and in the experiment on UACC-62 melanoma was greater than 100 µM each time. Further, the TGI in the experiment with LOX IMVI melanoma and with SK-MEL-28 melanoma was greater than 100 µM throughout.

With `O=C1C=CC(=O)c2c(O)c(NCCc3ccc(O)cc3)c(Cl)c(O)c21`, the TGI in the experiment on K-562 leukemia, in the experiment on MDA-MB-231 breast, in the experiment with SNB-75 CNS, with HCC-2998 colon, in the experiment with HL-60(TB) leukemia and in the experiment on UACC-62 melanoma was greater than 10 µM each time. Moreover, the TGI with OVCAR-4 ovarian, with LOX IMVI melanoma and with OVCAR-5 ovarian was greater than 10 µM throughout.

Turning to `COc1c(C)c2nc3ccccc3[nH]c2c2c(=O)ccnc12`, the TGI in the experiment on K-562 leukemia is greater than 100 µM; in the experiment with MDA-MB-231 breast, greater than 100 µM; in the experiment on SNB-75 CNS, 35.1 µM; in the experiment with HCC-2998 colon, greater than 100 µM; in the experiment with HL-60(TB) leukemia, greater than 100 µM; with OVCAR-4 ovarian, greater than 100 µM. Also, the TGI with LOX IMVI melanoma, in the experiment with SK-MEL-28 melanoma and in the experiment on OVCAR-5 ovarian was greater than 100 µM in each case.

For `CC1(C)C=C(S(=O)(=O)c2ccccc2)Oc2ccccc2O1`, the TGI in the experiment with K-562 leukemia is greater than 100 µM; with MDA-MB-231 breast, greater than 100 µM; in the experiment on SNB-75 CNS, 82.3 µM; in the experiment on HCC-2998 colon, 68.5 µM; in the experiment on HL-60(TB) leukemia, 46.2 µM; in the experiment on UACC-62 melanoma, greater than 100 µM. Further, the TGI with OVCAR-4 ovarian was greater than 100 µM; in the experiment on LOX IMVI melanoma, 57.6 µM; in the experiment on SK-MEL-28 melanoma it was greater than 100 µM; with OVCAR-5 ovarian it was greater than 100 µM.

With `c1ccc(/C(=N/Nc2ccccn2)c2ncccn2)cc1`, the TGI in the experiment with K-562 leukemia was greater than 39.8 µM; with MDA-MB-231 breast, greater than 100 µM; in the experiment on SNB-75 CNS, 16.2 µM; with HCC-2998 colon, greater than 100 µM; in the experiment with HL-60(TB) leukemia, greater than 100 µM; with UACC-62 melanoma, 12.2 µM. Moreover, the TGI in the experiment with OVCAR-4 ovarian is greater than 100 µM; in the experiment with SK-MEL-28 melanoma it was greater than 78.1 µM; with OVCAR-5 ovarian, greater than 100 µM.

On to `Brc1ccc2c(-c3csc(-c4c[nH]c5ccc(Br)cc45)n3)c[nH]c2c1`, for which the TGI in the experiment with K-562 leukemia is greater than 22.2 µM; in the experiment on MDA-MB-231 breast it was greater than 24.6 µM; in the experiment on SNB-75 CNS, 24.9 µM; with HCC-2998 colon, 5.51 µM; with HL-60(TB) leukemia, 19.7 µM; in the experiment on UACC-62 melanoma, 9.2 µM. For the same compound, the TGI was found to be 23.9 µM in the experiment on OVCAR-4 ovarian, 4.16 µM in the experiment with LOX IMVI melanoma, 25.8 µM with SK-MEL-28 melanoma and 7.54 µM in the experiment with OVCAR-5 ovarian.

As to `COc1ccc2c(c1)CN1C(=N2)CSC1c1ccccc1Cl` (centres undefined), the TGI in the experiment on K-562 leukemia worked out at 30.5 µM; in the experiment with MDA-MB-231 breast it was 67.5 µM; with SNB-75 CNS, 48.8 µM; with HCC-2998 colon it was 29.8 µM; in the experiment with HL-60(TB) leukemia it was 24.9 µM; in the experiment on UACC-62 melanoma it was 34.6 µM. For the same compound, the TGI in the experiment with OVCAR-4 ovarian came out at 45.1 µM; in the experiment with LOX IMVI melanoma, 28.9 µM; in the experiment with SK-MEL-28 melanoma, 26.9 µM; in the experiment with OVCAR-5 ovarian it was 46.8 µM.

For the compound `Cc1nc(C)c(Cc2ccccc2)o1`, the TGI with K-562 leukemia, in the experiment on MDA-MB-231 breast, in the experiment with SNB-75 CNS, with HCC-2998 colon, with HL-60(TB) leukemia and with UACC-62 melanoma was greater than 100 µM in each case. Besides, the TGI in the experiment with OVCAR-4 ovarian, in the experiment on LOX IMVI melanoma, in the experiment on SK-MEL-28 melanoma and in the experiment with OVCAR-5 ovarian was greater than 100 µM in each case.

In the case of `CCCCc1ccc(Nc2nc3c(ncn3COCCO)c(=O)[nH]2)cc1`, the TGI in the experiment with K-562 leukemia, with MDA-MB-231 breast, in the experiment on SNB-75 CNS, in the experiment on HCC-2998 colon, in the experiment with HL-60(TB) leukemia and in the experiment with UACC-62 melanoma was greater than 100 µM throughout. The TGI in the experiment with OVCAR-4 ovarian, in the experiment with LOX IMVI melanoma and in the experiment with OVCAR-5 ovarian was greater than 100 µM each time.

As for `COc1cc(I)c2c3c1OC1C34CCN(C)C(C2)C4=CC(I)C1(OC)OC` (centres undefined), the TGI in the experiment on K-562 leukemia worked out at 61.8 µM; in the experiment on MDA-MB-231 breast, 46.3 µM; in the experiment on SNB-75 CNS it was 31.2 µM; in the experiment on HCC-2998 colon, 28.9 µM; in the experiment on HL-60(TB) leukemia it was 47.3 µM; with UACC-62 melanoma, 42 µM. The TGI in the experiment with OVCAR-4 ovarian came to 55.9 µM; in the experiment with LOX IMVI melanoma, 42.3 µM; in the experiment with SK-MEL-28 melanoma it was 47.5 µM; with OVCAR-5 ovarian it was 81.6 µM.

For the compound `N#Cc1c(-c2ccc(F)cc2)nc(N/N=C/c2c[nH]c3ccccc23)nc1N1CCOCC1`, the GI50 in the experiment on K-562 leukemia is 1.79 µM; in the experiment with MDA-MB-231 breast, 5.16 µM; in the experiment with SNB-75 CNS, 3.45 µM; in the experiment on HCC-2998 colon, 9.91 µM; with HL-60(TB) leukemia, 0.563 µM; with UACC-62 melanoma, 11.4 µM. The GI50 in the experiment on OVCAR-4 ovarian is 16.1 µM; in the experiment on LOX IMVI melanoma, 3.33 µM; in the experiment on SK-MEL-28 melanoma, 1.92 µM; with OVCAR-5 ovarian, 19.5 µM. Besides, the TGI was 14.2 µM with K-562 leukemia; 56.4 µM with MDA-MB-231 breast; 38.4 µM in the experiment with SNB-75 CNS; greater than 100 µM in the experiment on HCC-2998 colon; 7.57 µM with HL-60(TB) leukemia; 27.4 µM in the experiment with UACC-62 melanoma. The TGI with OVCAR-4 ovarian amounted to 62.8 µM; with LOX IMVI melanoma, 11.2 µM; in the experiment with SK-MEL-28 melanoma, 4.04 µM; in the experiment with OVCAR-5 ovarian, 74 µM.

For the compound `NC(=O)C(=CNC(=S)c1ccncc1)C(N)=O`, the TGI in the experiment on K-562 leukemia, with MDA-MB-231 breast, in the experiment on HCC-2998 colon, in the experiment on HL-60(TB) leukemia, in the experiment with UACC-62 melanoma and in the experiment with OVCAR-4 ovarian was greater than 100 µM throughout. Besides, the TGI in the experiment with LOX IMVI melanoma and with OVCAR-5 ovarian was greater than 100 µM in each case.

`CC(=S)N=Cc1c(O)cc(C)oc1=O`: the TGI in the experiment with K-562 leukemia, in the experiment with MDA-MB-231 breast, in the experiment on SNB-75 CNS, in the experiment with HCC-2998 colon, in the experiment with HL-60(TB) leukemia and in the experiment with UACC-62 melanoma was greater than 100 µM each time. Moreover, the TGI in the experiment on OVCAR-4 ovarian, in the experiment with LOX IMVI melanoma and in the experiment with OVCAR-5 ovarian was greater than 100 µM throughout.

As for `COc1ccc(Nc2nc3c([nH]2)c(=O)n(C)c(=O)n3C)cc1`, the TGI in the experiment with K-562 leukemia, in the experiment on MDA-MB-231 breast, in the experiment with SNB-75 CNS, in the experiment with HCC-2998 colon, in the experiment on HL-60(TB) leukemia and in the experiment on UACC-62 melanoma was greater than 10 µM in each case. For the same compound, the TGI with OVCAR-4 ovarian, in the experiment on LOX IMVI melanoma and in the experiment on SK-MEL-28 melanoma was greater than 10 µM throughout.

`COc1ccc(-c2c(C#N)c(N)nc3c2CCS(=O)(=O)c2ccccc2-3)cc1`: the TGI in the experiment with K-562 leukemia, with MDA-MB-231 breast, with SNB-75 CNS, with HCC-2998 colon, in the experiment on HL-60(TB) leukemia and in the experiment with UACC-62 melanoma was greater than 100 µM in each case. Moreover, the TGI with OVCAR-4 ovarian, in the experiment with LOX IMVI melanoma and in the experiment with SK-MEL-28 melanoma was greater than 100 µM in each case.

For the compound `COc1cc(/C=C\C(=O)O)ccc1OCc1ccccc1`, the TGI in the experiment on K-562 leukemia, in the experiment on MDA-MB-231 breast, with HCC-2998 colon, in the experiment on HL-60(TB) leukemia, in the experiment on UACC-62 melanoma and with LOX IMVI melanoma was greater than 100 µM in each case. The TGI in the experiment with SK-MEL-28 melanoma and with OVCAR-5 ovarian was greater than 100 µM each time.

For `CC1(CNCc2ccccc2)CC(CCc2ccccc2)N(C(=O)c2ccc([N+](=O)[O-])cc2)C1Cc1ccc(O)cc1` (centres undefined), the TGI in the experiment with K-562 leukemia is greater than 100 µM; in the experiment with MDA-MB-231 breast, 24.4 µM; in the experiment with HCC-2998 colon, 27.1 µM; with HL-60(TB) leukemia, 54.4 µM; with UACC-62 melanoma it was 28.9 µM; in the experiment on OVCAR-4 ovarian it was 28.2 µM. In addition, the TGI in the experiment with LOX IMVI melanoma is 26.2 µM; with SK-MEL-28 melanoma it was greater than 100 µM; in the experiment on OVCAR-5 ovarian it was 34 µM.

For the compound `CN(C)S(=O)(=O)Nc1nnc(S(N)(=O)=O)s1`, the TGI in the experiment on K-562 leukemia, with MDA-MB-231 breast, in the experiment on SNB-75 CNS, with HCC-2998 colon, with HL-60(TB) leukemia and in the experiment with UACC-62 melanoma was greater than 100 µM each time. Also, the TGI with OVCAR-4 ovarian, with SK-MEL-28 melanoma and in the experiment on OVCAR-5 ovarian was greater than 100 µM throughout.
